Activity calls are given as the source filed them.
Columns and labels:
[1] = target: Activin receptor type-1 (Homo sapiens, UniProt Q04771); assay: Navigating the Kinome. Panel member name: ACVR1; assay type: functional
[2] = target: Melanin-concentrating hormone receptor 1 (Homo sapiens, UniProt Q99705); assay: Late-stage fluorescence-based counterscreen for antagonists of the G-protein coupled receptor 7 (GPR7): cell-based dose response assay to identify antagonists of the melanin-concentrating hormone receptor 1 (MCHR1) Set 5.; assay type: functional
Sequence of Melanin-concentrating hormone receptor 1 (Q99705 whole entry): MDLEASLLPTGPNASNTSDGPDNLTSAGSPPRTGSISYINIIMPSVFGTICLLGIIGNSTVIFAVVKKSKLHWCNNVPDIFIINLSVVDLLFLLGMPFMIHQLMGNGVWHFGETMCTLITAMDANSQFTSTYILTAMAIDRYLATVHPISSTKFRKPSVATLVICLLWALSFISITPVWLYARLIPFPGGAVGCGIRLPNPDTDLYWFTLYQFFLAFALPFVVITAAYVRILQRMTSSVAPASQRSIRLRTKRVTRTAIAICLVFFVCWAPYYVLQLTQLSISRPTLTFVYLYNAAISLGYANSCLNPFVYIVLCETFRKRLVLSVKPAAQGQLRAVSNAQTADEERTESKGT

[3] = target: T1, Neuropeptides B/W receptor type 1 (Homo sapiens, UniProt P48145); assay: human NPBW1 receptor blockade, IC50 – cell-based, fluorescence, dose response, set 5, late-stage follow-up (AID 588566); assay type: functional
T1 sequence (P48145 whole entry): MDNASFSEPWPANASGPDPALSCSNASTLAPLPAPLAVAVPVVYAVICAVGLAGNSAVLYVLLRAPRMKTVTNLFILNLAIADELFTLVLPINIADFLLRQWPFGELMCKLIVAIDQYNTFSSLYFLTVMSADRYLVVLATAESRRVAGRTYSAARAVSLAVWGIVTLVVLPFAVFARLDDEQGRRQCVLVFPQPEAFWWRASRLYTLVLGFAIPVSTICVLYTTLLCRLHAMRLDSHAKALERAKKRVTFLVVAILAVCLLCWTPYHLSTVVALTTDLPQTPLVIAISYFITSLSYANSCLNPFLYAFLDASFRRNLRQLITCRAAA

[4] = target: Mitochondrial peptide methionine sulfoxide reductase (Bos taurus, UniProt P54149); assay type: functional;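 note: absorbance read-out, biochemical high-throughput dose-response screen for MsrA inhibitors, confirmatory; recombinant bovine MsrA coupled to E. coli TrxB with NADPH and selenocystamine; potency is for inhibitors of MsrA activity on DMSO substrate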
Sequence of Mitochondrial peptide methionine sulfoxide reductase (P54149 whole entry): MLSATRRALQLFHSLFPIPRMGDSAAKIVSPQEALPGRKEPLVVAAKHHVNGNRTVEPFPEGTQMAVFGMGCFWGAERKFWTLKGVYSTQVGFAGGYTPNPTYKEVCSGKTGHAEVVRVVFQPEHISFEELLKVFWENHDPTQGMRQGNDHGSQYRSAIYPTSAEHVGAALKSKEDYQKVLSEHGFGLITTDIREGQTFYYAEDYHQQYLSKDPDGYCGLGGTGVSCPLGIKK

[5] = target: T2, Calpain-2 catalytic subunit (Sus scrofa, UniProt P43367); assay: m-calpain protease blockers, concentration series – biochemical, fluorogenic peptide substrate, dose response (AID 1420); assay type: functional
T2 sequence (P43367 whole entry): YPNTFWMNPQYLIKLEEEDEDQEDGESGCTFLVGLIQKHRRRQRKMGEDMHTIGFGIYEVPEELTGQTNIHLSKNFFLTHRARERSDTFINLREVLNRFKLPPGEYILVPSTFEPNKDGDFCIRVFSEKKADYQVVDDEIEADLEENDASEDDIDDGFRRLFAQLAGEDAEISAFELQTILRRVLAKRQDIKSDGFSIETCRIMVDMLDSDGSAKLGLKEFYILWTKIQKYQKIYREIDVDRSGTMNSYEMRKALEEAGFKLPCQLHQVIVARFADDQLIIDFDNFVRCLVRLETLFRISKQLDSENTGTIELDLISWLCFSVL

[6] = target: DNA repair and recombination protein RAD54-like (Homo sapiens, UniProt Q92698); assay: RAD54 Holliday junction migration blockers – biochemical, fluorescence, cherry-picked samples, dose series, confirmation (AID 651657); assay type: functional
Sequence of DNA repair and recombination protein RAD54-like (Q92698 whole entry, the tested form may be a part): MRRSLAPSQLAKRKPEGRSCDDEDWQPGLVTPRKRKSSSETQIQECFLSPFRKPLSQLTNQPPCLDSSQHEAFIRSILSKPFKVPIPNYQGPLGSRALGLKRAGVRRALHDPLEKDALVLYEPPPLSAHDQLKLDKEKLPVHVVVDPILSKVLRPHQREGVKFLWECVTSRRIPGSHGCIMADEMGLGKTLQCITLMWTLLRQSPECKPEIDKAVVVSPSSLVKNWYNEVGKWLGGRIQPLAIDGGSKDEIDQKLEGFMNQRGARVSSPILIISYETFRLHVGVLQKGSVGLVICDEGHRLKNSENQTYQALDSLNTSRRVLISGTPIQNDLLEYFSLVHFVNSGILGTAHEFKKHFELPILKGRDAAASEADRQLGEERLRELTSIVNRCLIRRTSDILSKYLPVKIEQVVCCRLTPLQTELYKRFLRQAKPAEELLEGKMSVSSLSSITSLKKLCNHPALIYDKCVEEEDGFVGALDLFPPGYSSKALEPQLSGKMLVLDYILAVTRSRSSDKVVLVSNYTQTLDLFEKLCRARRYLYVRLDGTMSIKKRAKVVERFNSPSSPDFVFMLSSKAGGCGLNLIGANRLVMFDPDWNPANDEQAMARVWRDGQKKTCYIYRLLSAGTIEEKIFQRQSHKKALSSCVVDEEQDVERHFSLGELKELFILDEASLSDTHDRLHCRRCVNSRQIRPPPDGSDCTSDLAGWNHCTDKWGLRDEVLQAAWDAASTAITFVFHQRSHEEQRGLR

[7] = inhibition of ARNT PAS-B/TACC3 complex formation – biochemical, AlphaScreen, cherry-picked samples, confirmation (AID 651703); assay type: functional, Homo sapiens;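 note: His-tagged ARNT PAS-B domain paired with GST-TACC3 E629A dimer coactivator fragment; potency of inhibitors that break up the complex and lower AlphaScreen signal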
[8] = target: T3, Ubiquitin-conjugating enzyme E2 N (Homo sapiens, UniProt P61088); assay type: functional
T3 sequence (P61088 whole entry): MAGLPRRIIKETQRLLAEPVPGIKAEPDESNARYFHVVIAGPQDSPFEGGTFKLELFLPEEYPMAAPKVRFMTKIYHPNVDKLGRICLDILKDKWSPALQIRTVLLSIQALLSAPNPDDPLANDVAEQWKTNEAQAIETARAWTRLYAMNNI

[9] = fluconazole-exposed Candida albicans growth modulators – fluorescence, retest, confirmation (AID 2467); assay type: functional, cell-based
[10] = system: HEK293; assay: membrane integrity loss in HEK cells – cell-based, fluorescence, cytotoxicity control for IDE activator project, dose response (AID 588440); assay type: functional; conditions: Homo sapiens;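 note: cytotoxicity by LDH release measuring loss of membrane integrity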
[11] = target: T3, Ubiquitin-conjugating enzyme E2 N; assay type: functional; remark: listed apart in the source
[12] = NIH-3T3 fibroblast cytotoxicity, dose response, cytotoxicity control, cell-based, fluorescence, Alamar Blue, secondary assay (AID 2327); assay type: functional;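 note: NIH-3T3 mouse fibroblasts cultured with fluconazole at 8 µg/mL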
[13] = target: T4, Insulin-degrading enzyme (Homo sapiens, UniProt P14735); assay: recombinant IDE activation, cell-free – biochemical, fluorescence polarization, counter-screen for IDE activator project, dose response (AID 588681)
T4 sequence (P14735 whole entry): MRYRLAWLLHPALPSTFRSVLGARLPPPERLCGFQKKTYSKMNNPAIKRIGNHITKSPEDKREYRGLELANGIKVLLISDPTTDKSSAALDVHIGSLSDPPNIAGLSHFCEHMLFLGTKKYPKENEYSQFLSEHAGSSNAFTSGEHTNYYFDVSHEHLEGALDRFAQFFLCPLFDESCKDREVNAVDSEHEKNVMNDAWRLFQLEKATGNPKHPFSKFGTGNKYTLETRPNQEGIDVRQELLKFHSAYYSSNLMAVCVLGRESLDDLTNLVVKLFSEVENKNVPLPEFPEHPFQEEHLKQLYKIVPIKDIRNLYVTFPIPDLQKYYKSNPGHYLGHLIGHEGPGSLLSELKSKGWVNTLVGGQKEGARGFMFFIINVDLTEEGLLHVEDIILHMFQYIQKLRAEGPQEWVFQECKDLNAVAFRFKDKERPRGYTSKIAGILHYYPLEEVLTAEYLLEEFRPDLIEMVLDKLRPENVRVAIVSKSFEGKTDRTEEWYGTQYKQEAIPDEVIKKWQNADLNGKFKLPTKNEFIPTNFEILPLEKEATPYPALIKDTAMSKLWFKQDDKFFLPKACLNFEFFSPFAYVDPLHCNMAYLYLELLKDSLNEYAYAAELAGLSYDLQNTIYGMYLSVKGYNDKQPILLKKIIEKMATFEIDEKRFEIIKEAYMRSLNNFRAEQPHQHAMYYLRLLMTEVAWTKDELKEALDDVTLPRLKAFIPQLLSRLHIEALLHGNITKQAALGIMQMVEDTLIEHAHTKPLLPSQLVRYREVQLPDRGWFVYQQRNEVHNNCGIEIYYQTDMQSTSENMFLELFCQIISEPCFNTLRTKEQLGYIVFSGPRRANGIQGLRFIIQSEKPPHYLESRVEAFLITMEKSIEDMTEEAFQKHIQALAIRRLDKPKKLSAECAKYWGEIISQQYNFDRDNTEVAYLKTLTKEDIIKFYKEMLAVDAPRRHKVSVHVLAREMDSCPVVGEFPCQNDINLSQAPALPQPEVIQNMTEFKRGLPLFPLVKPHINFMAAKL

[14] = target: T5, Apoptotic protease-activating factor 1 (Homo sapiens, UniProt O14727); assay type: functional
T5 sequence (O14727 whole entry): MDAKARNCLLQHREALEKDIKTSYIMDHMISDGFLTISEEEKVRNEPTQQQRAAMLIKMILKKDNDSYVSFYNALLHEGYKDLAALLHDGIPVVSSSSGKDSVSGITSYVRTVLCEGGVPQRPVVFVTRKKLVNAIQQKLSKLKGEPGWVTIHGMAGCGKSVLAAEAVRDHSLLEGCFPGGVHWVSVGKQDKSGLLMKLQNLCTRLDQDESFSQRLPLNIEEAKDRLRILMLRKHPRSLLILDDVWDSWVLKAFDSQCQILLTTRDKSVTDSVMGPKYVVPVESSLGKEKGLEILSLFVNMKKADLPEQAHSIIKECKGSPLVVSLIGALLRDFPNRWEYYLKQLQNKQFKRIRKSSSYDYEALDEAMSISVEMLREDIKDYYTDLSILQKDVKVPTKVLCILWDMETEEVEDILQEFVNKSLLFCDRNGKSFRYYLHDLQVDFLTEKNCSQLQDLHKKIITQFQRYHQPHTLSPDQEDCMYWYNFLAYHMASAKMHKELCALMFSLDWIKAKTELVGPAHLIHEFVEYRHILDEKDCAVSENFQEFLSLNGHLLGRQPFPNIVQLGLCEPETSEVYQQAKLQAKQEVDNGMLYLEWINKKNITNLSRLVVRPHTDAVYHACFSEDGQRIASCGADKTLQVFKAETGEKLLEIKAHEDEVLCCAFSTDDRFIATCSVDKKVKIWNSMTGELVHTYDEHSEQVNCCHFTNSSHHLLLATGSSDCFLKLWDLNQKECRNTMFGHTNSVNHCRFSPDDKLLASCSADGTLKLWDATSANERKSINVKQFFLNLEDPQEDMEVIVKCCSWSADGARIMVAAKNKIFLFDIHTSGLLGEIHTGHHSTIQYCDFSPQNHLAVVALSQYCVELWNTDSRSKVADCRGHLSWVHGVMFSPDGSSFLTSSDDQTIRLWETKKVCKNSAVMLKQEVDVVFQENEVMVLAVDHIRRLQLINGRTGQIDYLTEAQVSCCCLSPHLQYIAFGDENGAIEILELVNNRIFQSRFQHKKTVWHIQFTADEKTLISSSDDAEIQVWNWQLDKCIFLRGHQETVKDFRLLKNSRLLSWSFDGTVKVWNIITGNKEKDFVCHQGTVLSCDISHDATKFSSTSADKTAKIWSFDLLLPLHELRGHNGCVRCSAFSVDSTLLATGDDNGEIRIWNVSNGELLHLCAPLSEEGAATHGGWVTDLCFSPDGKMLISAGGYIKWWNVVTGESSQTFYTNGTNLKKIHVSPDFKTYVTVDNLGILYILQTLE

[15] = target: T6, Bcl-2-related protein A1 (Mus musculus, UniProt Q07440); assay type: functional;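 note: confirmatory dose–response counterscreen on Bfl-1, used to check hits from a UBC13 polyubiquitin inhibitor campaign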
T6 sequence (Q07440 whole entry): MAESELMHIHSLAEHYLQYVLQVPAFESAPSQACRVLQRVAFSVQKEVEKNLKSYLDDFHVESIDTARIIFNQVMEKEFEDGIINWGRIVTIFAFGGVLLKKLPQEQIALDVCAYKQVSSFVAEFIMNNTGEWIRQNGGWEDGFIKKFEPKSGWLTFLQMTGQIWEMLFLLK

[16] = target: T4, Insulin-degrading enzyme; assay: cellular IDE activation of Abeta substrate cleavage – fluorescence polarization, HEK cells, dose response (AID 588439); assay type: functional, cell-based
[17] = microbe, parasite or virus in culture; assay type: functional; conditions: Mycobacterium tuberculosis
[18] = system: HEK293; assay: optical interference in Abeta FP readout, dose response, artefact control for IDE activator project, biochemical, fluorescence polarization (AID 588442); assay type: functional, cell-based; conditions: Homo sapiens

Sequence of Activin receptor type-1 (Q04771 whole entry): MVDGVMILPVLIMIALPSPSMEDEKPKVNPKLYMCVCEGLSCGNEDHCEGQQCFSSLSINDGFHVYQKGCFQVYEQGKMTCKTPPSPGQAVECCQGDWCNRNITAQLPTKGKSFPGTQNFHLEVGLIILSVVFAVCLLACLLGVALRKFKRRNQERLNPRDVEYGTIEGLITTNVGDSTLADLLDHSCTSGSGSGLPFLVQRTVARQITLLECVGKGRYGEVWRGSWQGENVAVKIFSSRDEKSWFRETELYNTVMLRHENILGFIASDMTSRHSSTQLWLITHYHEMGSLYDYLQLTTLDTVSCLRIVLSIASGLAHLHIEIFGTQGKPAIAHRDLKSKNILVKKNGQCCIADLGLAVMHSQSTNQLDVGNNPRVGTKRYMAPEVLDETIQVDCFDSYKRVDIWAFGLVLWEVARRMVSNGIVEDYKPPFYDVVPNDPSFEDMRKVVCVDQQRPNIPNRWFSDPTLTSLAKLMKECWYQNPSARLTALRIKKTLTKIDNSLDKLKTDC

C=CCn1c(=O)c2cnc(Nc3ccc(N4CCN(C)CC4)cc3)nc2n1-c1cccc(C(C)(C)O)n1 [ADAVOSERTIB]
Ki [1]: > 3.98 µM (inactive)

CCOC(=O)C(C#N)c1c(Cl)cnn(C2c3ccccc3-c3ccccc32)c1=O (stereo not drawn)
IC50 [2]: 7.86 µM (active) | IC50 [3]: 2.9 µM (active)

CCOC(=O)C(C)/C(C)=N\Nc1ccc([N+](=O)[O-])cc1[N+](=O)[O-] (stereo not drawn)
IC50 [4]: 155 µM (inactive) | IC50 [5]: > 50 µM (not active)

CN(C)CCN(C(=O)c1ccc2c(c1)OCCO2)c1nc2c(Cl)cccc2s1
AC50 [6]: 55.1 µM (active)

NC(=O)c1[nH]cnc1N
AC50 [7]: 90.5 µM (active)

NC1=NC[C@H](CC2CCCCC2)N1CCc1cc(C(F)(F)F)cc(C(F)(F)F)c1
IC50 [8]: 17.2 µM (active) | EC50 [9]: 7.64 µM (active) | IC50 [10]: 10.9 µM (inactive) | IC50 [11]: 14.6 µM (active) | EC50 [12]: 65.2 µM (active) | EC50 [13]: > 54.7 µM (inactive) | IC50 [14]: 74.7 µM (active) | IC50 [15]: > 20 µM (inactive) | EC50 [16]: 9.93 µM (active) | CC50 [17]: 26 µM (active) | EC50 [18]: > 54.7 µM (inactive)

Reference: ChEMBL document CHEMBL1201862, “PubChem BioAssay data set” (2004)
